The values below come from US20220289765A1, “CRYSTAL OF CARCINOGENIC FUSED KINASE INHIBITOR AND APPLICATIONS THEREOF” (Simcere Pharmaceutical Co., Ltd., priority 2019, published 2022).

Read-outs that look alike come from different tables or passages of the source.

The target in one data set is T1, ALK (Homo sapiens, UniProt Q9UM73).
T1 construct: purchased Reaction Biology Corp
Nature of the data set: Kinase inhibitory activity (33P-ATP filtration-binding, Reaction Biology Corp.). The class given is biochemical. Conditions: read-out: Half Inhibitory Concentrations of Kinases IC50, ALK. The protocol:
The inhibitory activity tests of compounds against kinases such as TrkA, TrkC, ALK, Ros1 were completed in Reaction Biology Corp. Certain concentrations of substrate, cofactors, kinases and test compounds (10 doses, 3-fold serial dilutions, 2% DMSO final concentration) were sequentially added to the reaction buffer (20 mM Hepes (pH 7.5), 10 mM MgCl2, 1 mM EGTA, 0.02% Brij35, 0.02 mg/mL BSA, 0.1 mM Na3VO4, 2 mM DTT, 1% DMSO), and mixed well. The resulting mixture was incubated at room temperature for 20 minutes, and a certain concentration of 33P-ATP was added to the reaction mixture to initiate the reaction, followed by incubation at room temperature for 120 minutes. Finally, the radioactivity of the reactants was detected by a filtration-binding method. The final kinase activity was expressed by the ratio of the remaining kinase activity in the test sample to the kinase activity of the DMSO control group. The dose-effect curve was fitted by GraphPad software and the IC50 values were calculated.

Another data set deals with BaF3 ETV6-NTRK3-G623R. In words: Cell proliferation inhibition (CellTiter-Glo, 72 h). The format is cell-based. The settings on record: Mus musculus, read-out: Half Inhibitory Concentrations of Cells IC50, BaF3 ETV6-NTRK3-G623R.
A further data set relates to Ba/F3 LMNA-NTRK1-F589L. The description is as above. The format is cell-based. Conditions: Mus musculus, BaF3, read-out: Half Inhibitory Concentrations of Cells IC50, Ba/F3 LMNA-NTRK1-F589L.
Data set [1] can be described thus: Cassette pharmacokinetic test in mice (plasma, brain, CSF). Conditions: cassette; for AUC(0-inf): read-out: Area under Curve AUC0-inf. The class given is in vivo, male CD-1 mice. The protocol:
The pharmacokinetic behaviors of the compounds of the present invention in mice were studied and the pharmacokinetic properties thereof were evaluated.

The subject of data set [2] is human lung cancer LU-01-0414 subcutaneous xenograft tumor. Nature of the data set: Efficacy test in mice, LU-01-0414 subcutaneous xenograft. The format is in vivo, BALB/c mouse. The settings on record: PO, 14 days, LU-01-0414 xenograft. How it is done: The in vivo efficacy of test drugs such as the compound of Formula (I) on human lung cancer LU-01-0414 subcutaneous xenograft tumor in a BALB/c mouse model was evaluated.
The compounds were prepared into clear solutions using 5% DMSO+10% solutol+85% water as a solvent for administration in PO (gavage) groups.
The tumor diameters were measured twice a week using a vernier caliper. The formula for calculating the tumor volume is: V=0.5×a×b^2, wherein a and b represent the long diameter and the short diameter of the tumor, respectively. The antitumor efficacy of the compounds was evaluated with TGI (%), which reflects the inhibition rate of tumor growth.
Statistical analysis was performed using SPSS software based on relative tumor volume and tumor weight at the end of the experiment. Comparisons among multiple groups were analyzed by one-way ANOVA. If the variances were homogeneous (no significant difference in F-values), the analysis was performed by the Tukey's method, and if the variances were not homogeneous (significant difference in F-values), the test was performed by the Games-Howell method. P<0.05 was considered as a significant difference.

Another data set has as its system Ba/F3 SLC34A2-ROS1-WT. In words: Cell proliferation inhibition (CellTiter-Glo, 72 h). The format is cell-based. Conditions: Mus musculus, BaF3, read-out: Half Inhibitory Concentrations of Cells IC50, Ba/F3 SLC34A2-ROS1-WT.

T1 sequence (Q9UM73 19-1620): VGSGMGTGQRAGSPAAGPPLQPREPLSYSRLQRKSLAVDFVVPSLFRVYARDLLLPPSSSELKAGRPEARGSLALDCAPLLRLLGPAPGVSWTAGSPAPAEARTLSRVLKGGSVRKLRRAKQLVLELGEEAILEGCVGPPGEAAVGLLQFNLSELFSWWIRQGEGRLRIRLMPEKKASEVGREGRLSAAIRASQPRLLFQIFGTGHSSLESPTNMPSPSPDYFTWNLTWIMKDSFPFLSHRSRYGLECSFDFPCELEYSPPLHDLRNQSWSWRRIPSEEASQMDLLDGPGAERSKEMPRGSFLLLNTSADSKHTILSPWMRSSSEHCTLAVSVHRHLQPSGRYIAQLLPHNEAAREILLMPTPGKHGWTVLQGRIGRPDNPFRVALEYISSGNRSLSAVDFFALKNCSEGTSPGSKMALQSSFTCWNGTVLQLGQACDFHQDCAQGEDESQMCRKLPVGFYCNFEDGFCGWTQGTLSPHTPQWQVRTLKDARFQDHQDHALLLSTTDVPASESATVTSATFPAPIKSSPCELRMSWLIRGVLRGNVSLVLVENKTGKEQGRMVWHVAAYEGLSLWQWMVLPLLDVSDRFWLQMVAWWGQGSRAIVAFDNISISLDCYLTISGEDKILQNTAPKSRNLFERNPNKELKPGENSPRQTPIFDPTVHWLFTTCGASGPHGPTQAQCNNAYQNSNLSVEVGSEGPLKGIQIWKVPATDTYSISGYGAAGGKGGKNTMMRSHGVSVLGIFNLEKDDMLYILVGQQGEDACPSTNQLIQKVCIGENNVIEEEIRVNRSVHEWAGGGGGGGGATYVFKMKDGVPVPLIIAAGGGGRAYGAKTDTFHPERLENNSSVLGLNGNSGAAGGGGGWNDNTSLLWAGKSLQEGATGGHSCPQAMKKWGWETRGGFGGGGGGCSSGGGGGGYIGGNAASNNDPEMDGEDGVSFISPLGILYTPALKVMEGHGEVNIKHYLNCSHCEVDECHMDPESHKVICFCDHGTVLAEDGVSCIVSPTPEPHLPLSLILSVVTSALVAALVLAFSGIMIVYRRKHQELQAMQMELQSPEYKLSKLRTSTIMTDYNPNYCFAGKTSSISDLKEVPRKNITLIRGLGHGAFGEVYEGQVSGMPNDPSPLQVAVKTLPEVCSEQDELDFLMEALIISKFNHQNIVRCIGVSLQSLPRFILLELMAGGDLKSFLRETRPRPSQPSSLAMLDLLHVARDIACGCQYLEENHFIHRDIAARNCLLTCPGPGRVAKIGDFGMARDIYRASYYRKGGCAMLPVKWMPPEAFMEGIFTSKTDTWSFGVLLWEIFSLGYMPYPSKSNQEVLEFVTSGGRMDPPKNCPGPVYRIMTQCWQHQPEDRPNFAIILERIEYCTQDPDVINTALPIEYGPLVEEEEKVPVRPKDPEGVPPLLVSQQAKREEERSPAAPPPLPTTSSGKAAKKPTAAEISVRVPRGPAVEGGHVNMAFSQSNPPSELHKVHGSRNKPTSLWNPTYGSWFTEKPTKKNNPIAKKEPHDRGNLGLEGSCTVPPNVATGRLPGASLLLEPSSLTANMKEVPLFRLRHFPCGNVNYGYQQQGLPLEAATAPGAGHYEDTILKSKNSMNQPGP

With `O=C1NC2(CC2)COc2ncc(F)cc2[C@H]2CCON2c2ccn3ncc1c3n2` [Compound of Formula (I)], the IC50 at ALK turned out to be 13 nM; in the data set with BaF3 ETV6-NTRK3-G623R it was 3.4 nM; in the data set with Ba/F3 LMNA-NTRK1-F589L it was 0.78 nM; in the data set on Ba/F3 SLC34A2-ROS1-WT it was 2.53 nM. Besides, the “Apparent Clearance Cl” value in data set [1] (IV @ 1 mpk, male CD-1 mice) came to 6.3 mL/min/kg. Also, in data set [1] (PO @ 3 mpk, CSF, 0.5 h), the “Drug Concentration in Cerebrospinal Fluid at 0.5 h” value was found to be 63 nmol/kg. The “Drug Concentration in Cerebrospinal Fluid at 2 h” value in data set [1] (PO @ 3 mpk, CSF, 2 h) was 21 nmol/kg. Besides, the “Drug Concentration in Brain at 0.5 h” value in data set [1] (PO @ 3 mpk, brain, 0.5 h) stood at 663 nmol/kg. Besides, the “Drug Concentration in Brain at 2 h” value in data set [1] (PO @ 3 mpk, brain, 2 h) stood at 343 nmol/kg. In addition, the Vd in data set [1] (mouse, plasma, 1 mg/kg, IV @ 1 mpk, male CD-1 mice, read-out: Apparent Distribution Volume Vd) was 0.57 L/kg. Also, the AUC(0-inf) in data set [1] (mouse, plasma, 1 mg/kg, IV @ 1 mpk, male CD-1 mice) turned out to be 6.69 µM·h; in data set [1] (mouse, plasma, 3 mg/kg, PO @ 3 mpk, male CD-1 mice), 19.8 µM·h. Besides, in data set [1] (mouse, plasma, 1 mg/kg, IV @ 1 mpk, male CD-1 mice, read-out: Half-life T1/2 (converted)), the half-life was 52.8 min. For the same molecule, the C0 in data set [1] (mouse, plasma, 1 mg/kg, IV @ 1 mpk, male CD-1 mice, read-out: Initial Concentration C0) turned out to be 3.71 µM. Besides, the bioavailability in data set [1] (mouse, plasma, 3 mg/kg, PO @ 3 mpk vs IV @ 1 mpk, male CD-1 mice, read-out: Bioavailability F %) came out at 76%. Moreover, the Cmax in data set [1] (mouse, plasma, 3 mg/kg, PO @ 3 mpk, male CD-1 mice, read-out: Peak Concentration Cmax) is 4.74 µM. Further, in data set [1] (mouse, plasma, 3 mg/kg, PO @ 3 mpk, male CD-1 mice, read-out: Time to Peak Tmax), the time of peak concentration (Tmax) worked out at 15 min. Further, the results for the T/C in data set [2] (3 mg/kg BID), in data set [2] (15 mg/kg BID) and in data set [2] (30 mg/kg BID) were 9.57%, 3.07% and 1.87%, respectively. In addition, the TGI in data set [2] (3 mg/kg BID) is on record as 118.02%; in data set [2] (15 mg/kg BID) it was 126.88%; in data set [2] (30 mg/kg BID), 128.36%.
